Experimental data published in ChEMBL document CHEMBL6103622 (J Med Chem, 2025).
Calls of active or inactive are those of the source. The calls are words filed in the database; no cut-off is given here.

How the values were obtained:
[1] = target: T1, Macrophage colony-stimulating factor 1 receptor (Mus musculus) (UniProt P09581); assay: Inhibition of CSF-1R signaling pathway activation in female C57BL/6 mouse BMDM cells assessed as reduction in ERK phosphorylation preincubated with compounds for 4 hrs followed by M-CSF stimulation and measured after 30 mins by Western blot analysis; format: cell-based; conditions: dose 10-100 nM, time 4.5 hrs
T1 sequence (whole entry): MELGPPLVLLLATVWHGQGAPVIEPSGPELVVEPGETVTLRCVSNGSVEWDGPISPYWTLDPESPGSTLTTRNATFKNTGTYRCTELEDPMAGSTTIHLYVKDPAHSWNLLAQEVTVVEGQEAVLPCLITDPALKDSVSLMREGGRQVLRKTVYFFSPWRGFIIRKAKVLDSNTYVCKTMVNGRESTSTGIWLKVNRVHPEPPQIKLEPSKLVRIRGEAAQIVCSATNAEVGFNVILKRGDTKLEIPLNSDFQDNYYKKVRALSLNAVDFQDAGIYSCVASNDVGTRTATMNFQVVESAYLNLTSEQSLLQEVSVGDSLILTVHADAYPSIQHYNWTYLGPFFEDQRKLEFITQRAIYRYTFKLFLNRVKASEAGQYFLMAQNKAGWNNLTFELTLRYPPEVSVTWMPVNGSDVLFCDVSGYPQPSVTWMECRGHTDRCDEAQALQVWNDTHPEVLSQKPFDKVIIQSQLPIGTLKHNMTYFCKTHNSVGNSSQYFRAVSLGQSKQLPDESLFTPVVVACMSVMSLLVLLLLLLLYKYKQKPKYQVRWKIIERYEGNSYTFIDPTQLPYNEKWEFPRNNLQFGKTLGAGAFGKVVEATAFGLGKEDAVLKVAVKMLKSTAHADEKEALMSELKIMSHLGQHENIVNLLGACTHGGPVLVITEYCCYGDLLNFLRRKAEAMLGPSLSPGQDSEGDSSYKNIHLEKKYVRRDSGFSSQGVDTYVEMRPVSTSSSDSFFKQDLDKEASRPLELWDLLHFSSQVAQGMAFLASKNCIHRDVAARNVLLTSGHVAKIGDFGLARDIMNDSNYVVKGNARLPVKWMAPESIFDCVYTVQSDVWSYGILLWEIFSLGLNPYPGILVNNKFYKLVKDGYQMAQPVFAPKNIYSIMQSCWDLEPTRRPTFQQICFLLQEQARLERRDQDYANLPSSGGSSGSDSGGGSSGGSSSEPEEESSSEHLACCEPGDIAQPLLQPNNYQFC

[2] = target: T1, Macrophage colony-stimulating factor 1 receptor (Mus musculus); assay: Inhibition of CSF-1R signaling pathway activation in female C57BL/6 mouse BMDM cells assessed as reduction in CSF-1R phosphorylation preincubated with compounds for 4 hrs followed by M-CSF stimulation and measured after 30 mins by Western blot analysis; format: cell-based; conditions: dose 10-100 nM, time 4.5 hrs
MC-38 [3] = assay: Antitumor activity against mouse MC38 cells allografted in C57BL/6 mouse model assessed as upregulation of Tnf mRNA expression in tumor at 10 to 20 mg/kg, ip administered once daily for 14 days by qPCR analysis; format: functional, organism-based; conditions: dose 10-20 mg/kg, time 14.0 day
[4] = system: Colorectal cancer organoid; assay: Antitumor activity against patient derived CRC organoids assessed as change in morphology of organoids at 10 to 100 nM incubated for 72 hrs; format: functional, tissue-based; conditions: Homo sapiens, Colorectum, dose 10-100 nM
MC-38 [5] = assay: Induction of apoptosis in mouse MC38 cells assessed as late apoptotic cells at 100 nM by Annexin V/PI staining based flow cytometric analysis (reference value: 0.85 %); format: functional
[6] = Terminal half-life in Sprague-Dawley rat at 10 mg/kg, po; format: ADME, organism-based; conditions: in vivo, read-out: beta t1/2 (converted)
[7] = AUC (0 to infinity) in Sprague-Dawley rat at 1 mg/kg, iv; format: ADME, organism-based; conditions: in vivo
[8] = target: T1, Macrophage colony-stimulating factor 1 receptor (Mus musculus); assay: Inhibition of CSF-1R signaling pathway activation in female C57BL/6 mouse BMDM cells assessed as reduction in AKT phosphorylation preincubated with compounds for 4 hrs followed by M-CSF stimulation and measured after 30 mins by Western blot analysis; format: cell-based; conditions: dose 10-100 nM, time 4.5 hrs
[9] = Toxicity in C57BL/6 mouse model allografted with mouse MC38 cells assessed as body weight loss at 10 to 20 mg/kg, ip administered once daily for 14 days; format: organism-based; conditions: in vivo, 336 h, dose 10-20 mg/kg, time 14 day
MC-38 [10] = assay: Induction of apoptosis in mouse MC38 cells assessed as early apoptotic cells at 10 nM by Annexin V/PI staining based flow cytometric analysis (reference value: 1.91 %); format: functional
MC-38 [11] = assay: Inhibition of cell proliferation in mouse MC38 cells cocultured with condition medium of M2 macrophages at 10 to 100 nM incubated for 20 hrs by CCK8 assay; format: functional, cell-based; conditions: dose 10-100 nM
BMDM [12] = assay: (§1) Induction of repolarization of M2 like macrophage into M1 phenotype in female C57BL/6 mouse BMDM cells assessed as increase in Il6 mRNA expression at 10 to 100 nM stimulated with mouse IL4/IL-13 for 24 hrs followed by compound addition and measured after 24 hrs by qPCR analysis; format: functional, cell-based; conditions: dose 10-100 nM
[13] = target: T2, Macrophage colony-stimulating factor 1 receptor (Homo sapiens, UniProt P07333); assay: Binding affinity to recombinant CSF-1R (unknown origin) assessed as dissociation rate constant by SPR analysis
[14] = target: T1, Macrophage colony-stimulating factor 1 receptor (Mus musculus); assay: Induction of thermal stabilization of CSF-1R in female C57BL/6 mouse BMDM cells assessed as increase in melting temperature at 100 nM incubated for 1 hrs under 52 to 68 degreeC by CETSA; format: cell-based
[15] = target: T2, Macrophage colony-stimulating factor 1 receptor; assay: Binding affinity to recombinant CSF-1R (unknown origin) assessed as association rate constant by SPR analysis
BMDM [16] = assay: as §1, with “number of M1 macrophages by measuring increase in Nos2” for “Il6 mRNA”, “immunofluorescence” for “qPCR”; format: functional, cell-based; conditions: dose 10-100 nM
MC-38 [17] = assay: Antitumor activity against mouse MC38 cells allografted in C57BL/6 mouse model assessed as reduction in tumor weight at 20 mg/kg, ip administered once daily for 14 days relative to control; format: functional; design: scale not given: the % may be the effect or the level left; conditions: time 14 day
MC-38 [18] = assay: Antitumor activity against mouse MC38 cells allografted in C57BL/6 mouse model assessed as reduction in tumor volume at 10 mg/kg, ip administered once daily for 14 days relative to control; format: functional; design: scale not given: the % may be the effect or the level left; conditions: time 14 day
MC-38 [19] = assay: Induction of apoptosis in mouse MC38 cells cocultured with condition medium of M2 macrophages assessed as late apoptotic cells at 30 nM by Annexin V/PI staining based flow cytometric analysis (reference value: 1.66 %); format: functional
BMDM [20] = assay: Induction of repolarization of M2 like macrophage into M1 phenotype in female C57BL/6 mouse BMDM cells assessed as increase in Il1 mRNA expression at 10 to 100 nM stimulated with mouse IL4/IL-13 for 24 hrs followed by compound addition and measured after 24 hrs by qPCR analysis; format: functional, cell-based; conditions: dose 10-100 nM
MC-38 [21] = assay: Antitumor activity against mouse MC38 cells allografted in C57BL/6 mouse model assessed as downregulation of Mrc1 mRNA expression in tumor at 10 to 20 mg/kg, ip administered once daily for 14 days by qPCR analysis; format: functional, organism-based; conditions: dose 10-20 mg/kg, time 14.0 day

T2 sequence (P07333 whole entry): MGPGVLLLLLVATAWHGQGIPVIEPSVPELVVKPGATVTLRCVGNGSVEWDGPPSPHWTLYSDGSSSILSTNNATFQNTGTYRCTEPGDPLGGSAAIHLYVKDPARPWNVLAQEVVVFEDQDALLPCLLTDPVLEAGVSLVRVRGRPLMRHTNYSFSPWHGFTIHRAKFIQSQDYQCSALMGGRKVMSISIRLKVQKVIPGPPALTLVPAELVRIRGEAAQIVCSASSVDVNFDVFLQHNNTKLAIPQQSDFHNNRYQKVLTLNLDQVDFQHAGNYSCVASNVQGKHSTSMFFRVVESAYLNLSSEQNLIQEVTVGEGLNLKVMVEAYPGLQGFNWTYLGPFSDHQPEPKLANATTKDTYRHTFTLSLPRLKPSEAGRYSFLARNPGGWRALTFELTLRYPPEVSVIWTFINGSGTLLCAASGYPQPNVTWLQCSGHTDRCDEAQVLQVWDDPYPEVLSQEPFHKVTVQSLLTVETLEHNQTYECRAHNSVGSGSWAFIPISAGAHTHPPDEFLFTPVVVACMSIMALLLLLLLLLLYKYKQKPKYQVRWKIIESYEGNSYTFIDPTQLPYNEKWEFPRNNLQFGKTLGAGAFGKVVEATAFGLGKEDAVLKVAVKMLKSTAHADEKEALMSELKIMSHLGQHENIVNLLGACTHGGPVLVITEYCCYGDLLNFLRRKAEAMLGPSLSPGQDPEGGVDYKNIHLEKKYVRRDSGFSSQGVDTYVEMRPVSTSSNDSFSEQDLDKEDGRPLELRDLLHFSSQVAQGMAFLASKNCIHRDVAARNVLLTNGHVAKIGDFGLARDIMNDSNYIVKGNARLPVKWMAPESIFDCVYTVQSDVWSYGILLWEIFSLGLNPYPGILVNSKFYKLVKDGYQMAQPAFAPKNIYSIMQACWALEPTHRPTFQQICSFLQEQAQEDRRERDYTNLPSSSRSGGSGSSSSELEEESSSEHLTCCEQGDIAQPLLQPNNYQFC

inhibition [1]: Dose-dependent-effect
inhibition [2]: Dose-dependent-effect
half-life [6]: 1.86 h
AUC(0-inf) [7]: 527 ng·h/mL
inhibition [8]: Dose-dependent-effect
koff [13]: 0.00315 s⁻¹
Activity [14]: Active
Ka [15]: 1.07 10^5/Ms
Compound: Cc1nc(NC(=O)N[C@@H]2CCCC[C@H]2O)ccc1Oc1c[nH]c2ncc(Cl)cc12
Activity (MC-38 [3]): Active
Activity [4]: inactive
Activity (MC-38 [5]): 1.01%
Activity [9]: Non-toxic
Activity (MC-38 [10]): 1.96%
inhibition (MC-38 [11]): Active
Activity (BMDM [12]): Active
Activity (BMDM [16]): Active
Activity (MC-38 [17]): 56%
Activity (MC-38 [18]): 38%
Activity (MC-38 [19]): 4.88%
Activity (BMDM [20]): Active
Activity (MC-38 [21]): Active
